Laboratory results from US11878970B2, “Allosteric chromenone inhibitors of phosphoinositide 3-kinase (PI3K) for the treatment of disease” (Petra Pharma Corporation, priority 2021, dated 2024).

Assays:
[1] = target: T1, PI3K-α (PIK3CA) H1047R mutant, p110α/p85α complex (Homo sapiens, UniProt P42336, H1047R); experiment: PI3K-alpha kinase (PIK3CA) biochemical activity, ADP-Glo, H1047R mutant; settings: Soy PI lipid substrate
T1 construct: Recombinant, catalytically active human full length PIK3KA Wild-type and H1047R mutant; 6×His (N); purchased EMD Millipore Sigma 14-792M
T1 sequence (P42336 whole entry H1047R): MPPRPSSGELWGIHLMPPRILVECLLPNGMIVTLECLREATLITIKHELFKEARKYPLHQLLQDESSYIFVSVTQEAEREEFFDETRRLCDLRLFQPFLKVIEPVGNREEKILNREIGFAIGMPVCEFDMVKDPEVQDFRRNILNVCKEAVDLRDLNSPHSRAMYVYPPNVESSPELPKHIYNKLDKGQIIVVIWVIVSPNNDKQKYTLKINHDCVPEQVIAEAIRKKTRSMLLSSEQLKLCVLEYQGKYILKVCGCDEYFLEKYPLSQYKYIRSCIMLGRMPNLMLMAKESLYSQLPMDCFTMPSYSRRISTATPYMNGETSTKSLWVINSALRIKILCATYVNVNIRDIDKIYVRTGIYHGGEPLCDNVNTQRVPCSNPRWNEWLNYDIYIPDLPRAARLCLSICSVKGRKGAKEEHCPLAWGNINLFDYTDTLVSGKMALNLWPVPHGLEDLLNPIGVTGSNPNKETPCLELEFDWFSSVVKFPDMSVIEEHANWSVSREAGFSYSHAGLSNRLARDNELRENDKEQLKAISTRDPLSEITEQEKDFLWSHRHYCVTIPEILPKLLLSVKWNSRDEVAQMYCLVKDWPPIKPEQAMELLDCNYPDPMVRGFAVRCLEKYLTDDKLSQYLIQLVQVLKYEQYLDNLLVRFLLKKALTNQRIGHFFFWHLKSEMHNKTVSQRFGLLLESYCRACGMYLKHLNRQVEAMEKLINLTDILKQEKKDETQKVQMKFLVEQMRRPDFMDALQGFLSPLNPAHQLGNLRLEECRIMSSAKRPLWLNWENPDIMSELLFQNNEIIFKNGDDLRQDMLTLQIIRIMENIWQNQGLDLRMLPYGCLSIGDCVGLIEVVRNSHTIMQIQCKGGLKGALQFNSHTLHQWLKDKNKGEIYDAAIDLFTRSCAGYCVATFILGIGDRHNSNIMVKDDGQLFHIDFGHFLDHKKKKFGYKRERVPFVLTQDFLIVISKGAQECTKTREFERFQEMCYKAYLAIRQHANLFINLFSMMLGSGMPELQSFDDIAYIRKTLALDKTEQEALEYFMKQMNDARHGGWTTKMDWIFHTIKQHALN
T1 sequence (P27986 whole entry partner): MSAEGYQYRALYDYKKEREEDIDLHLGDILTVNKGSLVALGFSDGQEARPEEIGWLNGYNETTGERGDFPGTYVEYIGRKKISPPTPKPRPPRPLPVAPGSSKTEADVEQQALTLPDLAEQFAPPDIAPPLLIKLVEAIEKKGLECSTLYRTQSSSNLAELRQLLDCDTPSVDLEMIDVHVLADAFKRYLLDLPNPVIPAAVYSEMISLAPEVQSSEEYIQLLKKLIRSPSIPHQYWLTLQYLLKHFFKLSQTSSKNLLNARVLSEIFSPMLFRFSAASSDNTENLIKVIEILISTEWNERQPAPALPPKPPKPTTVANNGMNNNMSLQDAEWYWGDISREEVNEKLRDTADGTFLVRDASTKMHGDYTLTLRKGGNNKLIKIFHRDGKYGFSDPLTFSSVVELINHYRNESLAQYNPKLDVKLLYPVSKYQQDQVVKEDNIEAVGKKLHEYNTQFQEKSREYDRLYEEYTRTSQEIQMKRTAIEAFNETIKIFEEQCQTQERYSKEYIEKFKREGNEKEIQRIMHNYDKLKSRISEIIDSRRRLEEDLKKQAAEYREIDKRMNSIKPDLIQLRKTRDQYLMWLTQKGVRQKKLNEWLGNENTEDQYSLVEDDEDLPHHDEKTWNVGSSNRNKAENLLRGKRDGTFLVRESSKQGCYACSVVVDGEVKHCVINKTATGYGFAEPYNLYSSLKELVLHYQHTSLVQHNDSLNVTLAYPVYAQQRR
Summary of the method: (§1)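 ADP formation measured by ADP-Glo luminescence after reaction at 27 °C to about 10% ATP turnover, using 20 uM ATP, 50 uM PIP2diC8 or soy PI lipid, HEPES pH 7.4 with MgCl2. Enzyme (1-5 nM WT or H1047R p110α/p85α) and compound preincubated 1 h first; 10-point 1:3 curves fitted four-parameter for IC50.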

[2] = target: T2, PI3K-α (PIK3CA) wild-type (WT), p110α/p85α complex (Homo sapiens, UniProt P42336); experiment: PI3K-alpha kinase (PIK3CA) biochemical activity, ADP-Glo, wild-type; settings: Soy PI lipid substrate
T2 construct: Recombinant, catalytically active human full length PIK3KA Wild-type and H1047R mutant; 6×His (N); purchased EMD Millipore Sigma 14-602M
Summary of the method: as §1

[3] = target: PI3K-α (PIK3CA) in MDA-MB-453 cells (Homo sapiens, UniProt P42336); experiment: PI3K-alpha kinase (PIK3CA) in vitro cell based assay, MDA-MB-453 cells, SureFire Ultra AlphaLisa; settings: read-out: PI3K-α (PIK3CA) in vitro cell based assay IC50
Sequence of PI3K-α (PIK3CA) in MDA-MB-453 cells (P27986 2-724): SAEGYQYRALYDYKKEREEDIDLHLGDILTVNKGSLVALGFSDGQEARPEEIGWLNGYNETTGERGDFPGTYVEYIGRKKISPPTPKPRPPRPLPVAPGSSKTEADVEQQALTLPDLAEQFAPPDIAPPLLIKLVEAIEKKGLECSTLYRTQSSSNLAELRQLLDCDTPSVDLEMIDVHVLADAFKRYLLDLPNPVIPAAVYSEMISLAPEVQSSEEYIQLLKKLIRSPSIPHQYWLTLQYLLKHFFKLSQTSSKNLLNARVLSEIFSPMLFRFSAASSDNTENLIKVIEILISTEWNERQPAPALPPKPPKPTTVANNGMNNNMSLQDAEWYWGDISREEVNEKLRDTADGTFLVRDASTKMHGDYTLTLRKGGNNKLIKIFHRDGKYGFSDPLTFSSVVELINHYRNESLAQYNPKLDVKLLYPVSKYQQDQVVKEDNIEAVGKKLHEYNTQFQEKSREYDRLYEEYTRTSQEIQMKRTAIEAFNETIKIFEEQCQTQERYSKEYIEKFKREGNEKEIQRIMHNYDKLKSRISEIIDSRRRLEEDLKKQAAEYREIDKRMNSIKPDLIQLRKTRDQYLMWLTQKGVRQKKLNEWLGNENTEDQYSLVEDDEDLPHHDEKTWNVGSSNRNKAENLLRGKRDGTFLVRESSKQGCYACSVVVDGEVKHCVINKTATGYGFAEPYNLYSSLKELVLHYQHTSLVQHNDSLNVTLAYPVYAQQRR
Sequence of PI3K-α (PIK3CA) in MDA-MB-453 cells (P42336 whole entry): as the sequence (P42336 whole entry H1047R) above, with R1047H counted along it
Summary of the method: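 Cells treated 3 h in serum-free MEM with 1 μg/mL insulin, 10-point 1:3 series in 0.3% DMSO, then lysed for SureFire Ultra AlphaLisa read-out. Inhibition normalized to DMSO (max) and 1 μM GDC-0032 (min); duplicate averages fitted by 4-parameter logistic for relative IC50.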

| SMILES | IC50 [1] [nM] | IC50 [2] [nM] | IC50 [3] [nM] |
| --- | --- | --- | --- |
| Cc1cc(C(C)Nc2ccccc2C(=O)O)c2oc(-c3ccc4nc(C)cn4c3)cc(=O)c2c1 (single isomer, unassigned) [Example 37, 2-[1-[6-Methyl-2-(2-methylimidazo[1,2-a]pyridin-6-yl)-4-oxo-chromen-8-yl]ethylamino]benzoic acid] | > 10000 | 1000 to 5000 | > 500 |
| Cc1cc(C(C)Nc2ccccc2C(=O)O)c2oc(-c3cc4cnccc4o3)c(C)c(=O)c2c1 (single isomer, unassigned) [Example 153, 2-[1-(2-Furo[3,2-c]pyridin-2-yl-3,6-dimethyl-4-oxo-chromen-8-yl)ethylamino]benzoic acid] | < 500 | < 500 | < 50 |
| Cc1cc(C(C)Nc2ccccc2C(=O)O)c2oc(-c3cc4cccnc4cn3)cc(=O)c2c1 (single isomer, unassigned) [Example 187, 2-[1-[6-Methyl-2-(1,7-naphthyridin-6-yl)-4-oxo-chromen-8-yl]ethylamino]benzoic acid] | < 500 | 1000 to 5000 | < 50 |
| Cc1cc([C@@H](C)Nc2ccc(Br)nc2C(=O)O)c2oc(-c3ccc4nc(C)sc4n3)c(C)c(=O)c2c1 [Example 245, 6-Bromo-3-[[(1R)-1-[3,6-dimethyl-2-(2-methylthiazolo[5,4-b]pyridin-5-yl)-4-oxo-chromen-8-yl]ethyl]amino]pyridine-2-carboxylic acid] | < 500 | < 500 | < 50 |
| Cc1cc(C(C)Nc2ccccc2C(=O)O)c2oc(-c3ccc4ncccc4n3)cc(=O)c2c1 (single isomer, unassigned) [Example 252, 2-[1-[6-Methyl-2-(1,5-naphthyridin-2-yl)-4-oxo-chromen-8-yl]ethylamino]benzoic acid] | 500 to 1000 | 1000 to 5000 | < 50 |
| Cc1cc([C@@H](C)Nc2ccc(Br)nc2C(=O)O)c2oc(-c3ccc4nn(C)cc4c3)c(C)c(=O)c2c1 [Example 244, 6-Bromo-3-[[(1R)-1-[3,6-dimethyl-2-(2-methylindazol-5-yl)-4-oxo-chromen-8-yl]ethyl]amino]pyridine-2-carboxylic acid] | < 500 | < 500 | < 50 |
| Cc1cc([C@@H](C)Nc2ccc(C(F)(F)F)cc2C(=O)O)c2oc(-c3ccc4nc(C)sc4n3)c(C)c(=O)c2c1 [Example 234, 2-[[(1R)-1-[3,6-Dimethyl-2-(2-methylthiazolo[5,4-b]pyridin-5-yl)-4-oxo-chromen-8-yl]ethyl]amino]-5-(trifluoromethyl)benzoic acid] | 1000 to 5000 | 1000 to 5000 | 100 to 500 |
| Cc1cc([C@@H](C)Nc2ccc(Cl)cc2C(=O)O)c2oc(-c3ccc4cnn(C)c4c3)cc(=O)c2c1 [Example 237, 5-Chloro-2-[[(1R)-1-[6-methyl-2-(1-methylindazol-6-yl)-4-oxo-chromen-8-yl]ethyl]amino]benzoic acid] | < 500 | 500 to 1000 | 50 to 100 |
| Cc1cc(C(C)Nc2ccccc2C(=O)O)c2oc(-c3cc(F)c4nn(C)cc4c3)cc(=O)c2c1 (single isomer, unassigned) [Example 97, 2-[1-[2-(7-Fluoro-2-methyl-indazol-5-yl)-6-methyl-4-oxo-chromen-8-yl]ethylamino]benzoic acid] | < 500 | 1000 to 5000 | < 50 |
| Cc1cc(C(C)Nc2ccccc2C(=O)O)c2oc(-c3ccc4cc[nH]c4n3)cc(=O)c2c1 (single isomer, unassigned) [Example 4, 2-[1-[6-Methyl-4-oxo-2-(1H-pyrrolo[2,3-b]pyridin-6-yl)chromen-8-yl]ethylamino]benzoic acid] | < 500 | 500 to 1000 | < 50 |
| Cc1cc(C(C)Nc2ccccc2C(=O)O)c2oc(-c3cnn4cccnc34)cc(=O)c2c1 (single isomer, unassigned) [Example 33, 2-[1-(6-Methyl-4-oxo-2-pyrazolo[1,5-a]pyrimidin-3-yl-chromen-8-yl)ethylamino]benzoic acid] | > 10000 | > 10000 | > 500 |
| Cc1cc(C(C)Nc2ccccc2C(=O)O)c2oc(-c3ccc4c(cnn4C)c3)cc(=O)c2c1 (single isomer, unassigned) [Example 26, 2-[1-[6-Methyl-2-(1-methylindazol-5-yl)-4-oxo-chromen-8-yl]ethylamino]benzoic acid] | < 500 | < 500 | < 50 |
| Cc1cc([C@@H](C)Nc2ccc(F)cc2C(=O)O)c2oc(-c3ccc4nn(C)cc4c3)c(C)c(=O)c2c1 [Example 253, 2-[[(1R)-1-[3,6-Dimethyl-2-(2-methylindazol-5-yl)-4-oxo-chromen-8-yl]ethyl]amino]-5-fluoro-benzoic acid] | < 500 | < 500 | < 50 |
| Cc1cc(C(C)Nc2ccc(Cl)nc2C(=O)O)c2oc(-c3ccc4c(cnn4C)c3)cc(=O)c2c1 (single isomer, unassigned) [Example 218, 6-Chloro-3-[1-[6-methyl-2-(1-methylindazol-5-yl)-4-oxo-chromen-8-yl]ethylamino]pyridine-2-carboxylic acid] | < 500 | < 500 | < 50 |
| Cc1cc(C(C)Nc2ccccc2C(=O)O)c2oc(-c3ccc4nccn4n3)cc(=O)c2c1 (single isomer, unassigned) [Example 35, 2-[1-(2-Imidazo[1,2-b]pyridazin-6-yl-6-methyl-4-oxo-chromen-8-yl)ethylamino]benzoic acid] | 5000 to 10000 | 5000 to 10000 | > 500 |
| CC(Nc1ccccc1C(=O)O)c1cc(F)cc2c(=O)cc(-c3ccc4nn(C)cc4c3)oc12 (single isomer, unassigned) [Example 156, 2-[1-[6-Fluoro-2-(2-methylindazol-5-yl)-4-oxo-chromen-8-yl]ethylamino]benzoic acid] | 1000 to 5000 | 1000 to 5000 | > 500 |
| Cc1cc([C@@H](C)Nc2cccc(F)c2C(=O)O)c2oc(-c3ccc4cc[nH]c4n3)cc(=O)c2c1 [Example 241, 2-Fluoro-6-[[(1R)-1-[6-methyl-4-oxo-2-(1H-pyrrolo[2,3-b]pyridin-6-yl)chromen-8-yl]ethyl]amino]benzoic acid] | < 500 | 500 to 1000 | 50 to 100 |
| Cc1cc(C(C)Nc2ccccc2C(=O)O)c2oc(-c3ccn4cc(C)nc4c3)cc(=O)c2c1 (single isomer, unassigned) [Example 3, 2-[1-[6-Methyl-2-(2-methylimidazo[1,2-a]pyridin-7-yl)-4-oxo-chromen-8-yl]ethylamino]benzoic acid] | < 500 | 1000 to 5000 | 50 to 100 |
| Cc1cc(C(C)Nc2ccccc2C(=O)O)c2oc(-c3ccc4[nH]ncc4c3)cc(=O)c2c1 (single isomer, unassigned) [Example 60, 2-[1-[2-(1H-Indazol-5-yl)-6-methyl-4-oxo-chromen-8-yl]ethylamino]benzoic acid] | < 500 | 500 to 1000 | < 50 |
| Cc1cc(C(C)Nc2ccccc2C(=O)O)c2oc(-c3ccc4ccn(C)c4c3)cc(=O)c2c1 (single isomer, unassigned) [Example 158, 2-[1-[6-Methyl-2-(1-methylindol-6-yl)-4-oxo-chromen-8-yl]ethylamino]benzoic acid] | < 500 | 1000 to 5000 | < 50 |
| Cc1cc(C(C)Nc2ccccc2C(=O)O)c2oc(-c3ccc4[nH]nc(C)c4c3)cc(=O)c2c1 (single isomer, unassigned) [Example 61, 2-[1-[6-Methyl-2-(3-methyl-1H-indazol-5-yl)-4-oxo-chromen-8-yl]ethylamino]benzoic acid] | < 500 | 500 to 1000 | 50 to 100 |
| Cc1cc(C(C)Nc2ccc(Cl)nc2C(=O)O)c2oc(-c3cc4ccccc4[nH]3)cc(=O)c2c1 (single isomer, unassigned) [Example 223, 6-Chloro-3-[1-[2-(1H-indol-2-yl)-6-methyl-4-oxo-chromen-8-yl]ethylamino]pyridine-2-carboxylic acid] | < 500 | 500 to 1000 | < 50 |
| CC(Nc1ccccc1C(=O)O)c1cc(F)cc2c(=O)cc(-c3ccc4nn(C)cc4c3)oc12 (single isomer, unassigned) [Example 55, 2-[1-[6-Fluoro-2-(2-methylindazol-5-yl)-4-oxo-chromen-8-yl]ethylamino]benzoic acid] | < 500 | 1000 to 5000 | < 50 |
| Cc1cc([C@@H](C)Nc2ccc(Cl)nc2C(=O)O)c2oc(-c3cc4cccnc4[nH]3)c(C)c(=O)c2c1 [Example 247, 6-Chloro-3-[[(1R)-1-[3,6-dimethyl-4-oxo-2-(1H-pyrrolo[2,3-b]pyridin-2-yl)chromen-8-yl]ethyl]amino]pyridine-2-carboxylic acid] | < 500 | < 500 | < 50 |
| Cc1cc([C@@H](C)Nc2ccc(C(F)(F)F)nc2C(=O)O)c2oc(-c3ccc4nn(C)cc4c3)c(C)c(=O)c2c1 [Example 236, 3-[[(1R)-1-[3,6-Dimethyl-2-(2-methylindazol-5-yl)-4-oxo-chromen-8-yl]ethyl]amino]-6-(trifluoromethyl)pyridine-2-carboxylic acid] | < 500 | 500 to 1000 | < 50 |
